Experiment [1] has as its target EBOV NP (amino acids 36–351) (Zaire ebolavirus, UniProt P18272). It is filed as binding, Ebola virus.
Experiment [2] deals with MARV NP (amino acids 19–370) (Lake Victoria marburgvirus, UniProt P27588). It counts as binding, Marburg virus.
Sequence of MARV NP (amino acids 19–370) (P27588 19-370 limits assumed): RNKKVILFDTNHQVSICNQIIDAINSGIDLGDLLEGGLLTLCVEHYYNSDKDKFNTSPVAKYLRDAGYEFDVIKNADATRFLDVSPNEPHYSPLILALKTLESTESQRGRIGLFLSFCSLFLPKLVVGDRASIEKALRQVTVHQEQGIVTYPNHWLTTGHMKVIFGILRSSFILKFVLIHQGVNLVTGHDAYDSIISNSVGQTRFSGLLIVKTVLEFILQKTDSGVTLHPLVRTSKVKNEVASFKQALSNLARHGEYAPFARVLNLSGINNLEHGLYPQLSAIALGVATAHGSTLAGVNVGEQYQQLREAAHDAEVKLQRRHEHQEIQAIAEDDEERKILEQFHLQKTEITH

Sequence of EBOV NP (amino acids 36–351) (P18272 36-351 limits assumed): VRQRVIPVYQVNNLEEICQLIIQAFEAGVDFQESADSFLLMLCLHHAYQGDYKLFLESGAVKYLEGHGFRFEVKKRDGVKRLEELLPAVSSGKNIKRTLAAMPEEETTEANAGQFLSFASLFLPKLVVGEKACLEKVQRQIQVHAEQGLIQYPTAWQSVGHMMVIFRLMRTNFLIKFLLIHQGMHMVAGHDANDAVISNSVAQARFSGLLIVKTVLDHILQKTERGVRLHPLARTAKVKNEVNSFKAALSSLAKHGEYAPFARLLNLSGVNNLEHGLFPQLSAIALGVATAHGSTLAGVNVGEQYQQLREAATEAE

For the compound `C=CC(C)(C)c1cc(/C=C/C(=O)c2ccc(O)cc2)c(OC)cc1O` [GC13, Licochalcone A], in experiment [1], the “S/N AVE” value turned out to be 5.17, the VIP amounted to 2.27 and the “putative ligand in licorice crude extract screen” value (“putative ligand” below) is “met the aforementioned thresholds”. Besides, in experiment [2], the “S/N AVE” value was 6.85, the VIP came out at 2.03 and the “putative ligand” value is reported as “met the aforementioned thresholds”.
`COc1ccc(-c2coc3cc(O[C@@H]4O[C@H](CO)[C@@H](O)[C@H](O)[C@H]4O)ccc3c2=O)cc1` [GC5, Ononin]: in experiment [1], the “S/N AVE” value amounted to 1.46 and the VIP is on record as 1.09. Moreover, in experiment [2], the “S/N AVE” value was found to be 1.76 and the VIP was 1.28.
As to `COc1ccc(-c2coc3cc(O)ccc3c2=O)cc1O` [GC9, Calycosin], in experiment [1], the “S/N AVE” value was found to be 1.01 and the VIP is 0.14. For the same compound, in experiment [2], the “S/N AVE” value was 1.36 and the VIP came to 0.16.
In the case of `CC1(C)[C@@H](O[C@H]2O[C@H](C(=O)O)[C@@H](O)[C@H](O)[C@H]2O[C@@H]2O[C@H](C(=O)O)[C@@H](O)[C@H](O)[C@H]2O)CC[C@]2(C)[C@H]3C(=O)C=C4[C@@H]5C[C@@](C)(C(=O)O)CC[C@]5(C)CC[C@@]4(C)[C@]3(C)CC[C@@H]12` [GC6, Glycyrrhizin], in experiment [1], the “S/N AVE” value is recorded as 1.15, the VIP stood at 5.23 and the “putative ligand” value was “did not observe its direct binding”. Also, in experiment [2], the “S/N AVE” value was determined as 0.96, the VIP came to 1.39 and the “putative ligand” value is recorded as “did not observe its direct binding”.
`O=c1cc(-c2ccc(O)cc2)oc2c([C@@H]3OC[C@H](O)[C@H](O)[C@H]3O)c(O)c([C@@H]3O[C@H](CO)[C@@H](O)[C@H](O)[C@H]3O)c(O)c12` [GC3, Schaftoside]: in experiment [1], the “S/N AVE” value is given as 1.11 and the VIP is 0.60. In experiment [2], the “S/N AVE” value amounted to 1.62 and the VIP is on record as 1.60.
Regarding `O=C(/C=C/c1ccc(O)cc1)c1ccc(O[C@@H]2O[C@H](CO)[C@@H](O)[C@H](O)[C@H]2O)cc1O` [GC4, Neoisoliquiritin], the figures for the “S/N AVE” value in experiment [1] and in experiment [2] were 1.58 and 1.72, respectively. Also, the figures for the VIP in experiment [1] and in experiment [2] were 1.18 and 1.31, respectively.
In the case of `O=C1C[C@@H](c2ccc(O)cc2)Oc2cc(O)ccc21` [GC8, Liquiritigenin], in experiment [1], the “S/N AVE” value was determined as 1.04 and the VIP is recorded as 0.47. Also, in experiment [2], the “S/N AVE” value was 1.50 and the VIP was 0.65.
On to `O=C(/C=C/c1ccc(O[C@@H]2O[C@H](CO)[C@@H](O)[C@H](O)[C@H]2O)cc1)c1ccc(O)cc1O` [GC14, Isoliquiritin], for which, in experiment [1], the “S/N AVE” value was 1.22 and the VIP is 1.29. Besides, in experiment [2], the “S/N AVE” value is 1.73 and the VIP turned out to be 2.12.
Regarding glycyrrhetinic acid [GC7/10], in experiment [1], the VIP is recorded as 1.44 and the “putative ligand” value is listed as “met the aforementioned thresholds”. The “putative ligand” value in experiment [2] is given as “met the aforementioned thresholds”.

The values are drawn from paper PMC4940736 (Scientific Reports, 2016).
